Measured values as given in patent US10259812B2, “CGRP receptor antagonists” (Heptares Therapeutics Limited, priority 2015, dated 2019).
In brackets after ≈: the same amount, converted by molar mass.

What was measured:
human CGRP receptor = biological target: T1, human CGRP receptor (Homo sapiens, UniProt O60894+Q16602); assay: cAMP functional assay (HTRF) in SK-N-MC cells; assay type: cell-based; details: read-out: pKb average (converted)
T1 construct: The human neuroblastoma cell line SK-N-MC endogenously expressing the human CGRP receptor; endogenous in cells; host or cells: SK-N-MC human neuroblastoma cells
T1 sequence (Q16602 23-461): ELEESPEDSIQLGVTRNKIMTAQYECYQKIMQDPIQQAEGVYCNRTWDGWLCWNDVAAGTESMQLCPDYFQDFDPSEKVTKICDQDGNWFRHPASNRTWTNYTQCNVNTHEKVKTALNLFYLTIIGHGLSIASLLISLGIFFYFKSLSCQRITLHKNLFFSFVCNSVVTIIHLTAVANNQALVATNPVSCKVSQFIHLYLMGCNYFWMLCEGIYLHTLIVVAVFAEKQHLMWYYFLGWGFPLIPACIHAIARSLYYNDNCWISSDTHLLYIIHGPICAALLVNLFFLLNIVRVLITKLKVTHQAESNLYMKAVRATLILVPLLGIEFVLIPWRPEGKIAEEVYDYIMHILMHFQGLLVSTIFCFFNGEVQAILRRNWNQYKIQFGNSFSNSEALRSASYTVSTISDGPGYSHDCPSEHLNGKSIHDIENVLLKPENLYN
T1 sequence (O60894 27-148): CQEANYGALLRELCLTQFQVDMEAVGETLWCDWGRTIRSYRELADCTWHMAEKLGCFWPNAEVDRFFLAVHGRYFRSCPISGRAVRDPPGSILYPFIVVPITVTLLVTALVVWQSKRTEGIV
Procedure: cAMP production following receptor activation was determined using the Homogeneous Time-Resolved Fluorescence (HTRF) cAMP dynamic-2 assay (Cisbio, France). The human neuroblastoma cell line SK-N-MC endogenously expressing the human CGRP receptor was seeded at a density of 12,500 cells/well in solid walled 96 well half area plates (Costar, Catalog Number 3688, Corning Life Sciences, Germany). After 16 h incubation at 37° C. media was removed and cells were incubated at 37° C. for 30 min in serum free media containing 500 μM IBMX (Tocris, Abingdon, UK, Catalog Number 2845) and increasing concentrations of test antagonist. Following this cells were challenged with an EC80 concentration of human CGRP (0.3 nM) for a further 30 min at 37° C. and then cAMP production was determined as manufacturer's instructions before plates were read on a PheraStar fluorescence plate reader (BMG LabTech, Germany). IC50 values were derived from the inhibition curve. The pIC50 values (where pIC50=−log10 IC50) were converted to a functional pKb value using a modified Cheng-Prussoff equation where Kd=agonist EC50 and L hot=agonist challenge concentration. The pKb values of certain compounds of the invention are detailed in Table 3.

[1] = Thermodynamic solubility profiling; assay type: physicochemical; details: 24 h at rt
Procedure: A 50 mM DMSO stock solution of test compound was prepared, and from this, a working solution of 1 mM was prepared by dilution with DMSO. The UV absorbance of working solution was scanned from 220 nm to 1000 nm to identify the wavelength maxima of test compound. The 1 mM working solution was then serially diluted in DMSO to different concentrations to determine linearity/calibration curve. […] The resulting solution was then kept on a RotoSpin shaker at 50 rpm for 24 h at rt before the solution was filtered using 0.45 micron PVDF injector filters in order to remove the insoluble fraction of the compound. Subsequently, 150 uL of the filtrate is taken for quantification using a UV spectrophotometer, acquiring the optical density of standard solutions and test compound at the same wavelength maxima. From the optical density of test compound the thermodynamic solubility is calculated using the linearity/calibration curve and expressed as micromolar (μM). Solubility profiles of certain compounds of the invention are detailed in Table 6.

[2] = Pharmacokinetic profiling in cynomolgus monkey; assay type: in vivo, male Cynomolgus Monkeys; details: male, plasma, acidified saline
Procedure: (§1) Following dosing by the routes above blood samples were taken at several time points (typically pre-dose, 0.083, 0.25, 0.5 1, 2, 4, 8 and 24 h) via serial tail vein bleeds (rat) or cephalic or saphenous vein (monkey) from the animal and centrifuged to separate plasma for analysis by LC/MS/MS assay. WinNonlin v6.2 statistics software (Pharsight Corporation, California, USA) was used to generate pharmacokinetic parameters using the non-compartmental model.

[3] = Pharmacokinetic profiling in rat; assay type: in vivo, male Sprague Dawley rats; details: male, Sprague Dawley, plasma, inhaled or intranasal
Procedure: Prior to IN dosing rats were anaesthetised with an intramuscular dose of 25-30 mg/kg ketamine cocktail (ketamine, xylazine hydrochloride and acepromazine maleate in saline) and the dose is introduced over 20-30 s via a polyethylene PE-10 tube inserted approximately 5 mm into the nasal cavity of the rat.
as §1

[4] = biological target: T2, Human CGRP receptors (consisting of CRLR and RAMP1) (Homo sapiens, UniProt O60894+Q16602); assay: Radioligand binding assay (3H-telcagepant displacement); details: 0.5 nM 3H-telcagepant, Sf21 cell membranes, Ki by Cheng-Prussoff; read-out: pKi average (converted)
T2 construct: made in house; host or cells: Sf21 insect cells (baculovirus, pFastBac dual vector); membrane homogenates
T2 sequence (Q16602 23-461): as the sequence (Q16602 23-461) above
T2 sequence (O60894 27-148): as the sequence (O60894 27-148) above
Procedure: Human Calcitonin Receptor Like Receptor (CRLR) and human RAMP1 were cloned into Invitrogen's (ThermoFisher Scientific, UK) pFastBac dual expression vector. Transposition of CRLR/RAMP1 DNA was performed using Invitrogen's Bac-to-Bac Baculovirus Expression Systems. P0 baculovirus was generated by transfecting SF9 cells with bacmid DNA using Cellfectin® II transfection reagent (ThermoFisher Scientific, UK, catalog number 10362-100). Following P0 generation P1 virus was then generated ready for large scale infection and membrane preparation. Sf21 cells were grown in expression medium ESF921 (Expression Systems, USA, catalog number 96-001-01) supplemented with 10% heat-inactivated FBS and 1% Pen/Strep and were infected at a cell density of 2.5×10^6 cells/mL and an MOI of 2. Expression was carried out over 48 h in a shaking incubator set at 27° C. The cell culture was centrifuged at 2,500 rcf for 10 min at 4° C. The pellets were resuspended in cold PBS supplemented with Roche's Complete EDTA-free protease inhibitor cocktail tablets (Roche Applied Sciences, catalog number 05056489001), 1 mM PMSF and 1 mM EDTA. The resuspended cell paste was then centrifuged at 3,273 rcf for 12 min at 4° C. The supernatant was discarded and the pellet frozen at −80° C. The cell pellet from a 4 L culture was resuspended in buffer containing 50 mM Hepes pH 7.5, 150 mM NaCl, 8 Roche EDTA-free protease inhibitor cocktail tablets and 1 mM PMSF. The suspension was left stirring at rt for 1 h and then homogenised for 90 s at 9,500 rpm using a VDI 25 (VWR, USA) homogeniser. The cells were then lysed using a Microfluidizer processor M-110L Pneumatic (Microfluidics, USA). After lysis, the mixture was homogenised for 90 s at 9,500 rpm and then centrifuged at 335 rcf for 10 min. The supernatant was then further ultra-centrifuged at 42,000 rpm for 90 min. […]
Human CGRP receptors (consisting of CRLR and RAMP1) expressed in insect Sf21 cell membrane homogenates were re-suspended in the binding buffer (10 mM HEPES, pH 7.4, 5 mM MgCl2, 0.2% BSA) to a final assay concentration of […]. Saturation isotherms were determined by the addition of various concentrations of ^3H-telcagepant (Ho et al, The Lancet, 2008, 372, 2115) (in a total reaction volume of 250 μL) for 60 min at rt. […] Non-specific binding (NSB) was measured in the presence of 10 nM MK-3207 hydrochloride (CAS No. 957116-20-0). Radioactivity on the filter was counted (1 min) on a microbeta counter after addition of 50 μL of scintillation fluid. […] IC50 values were derived from the inhibition curve and the affinity constant (Ki) values were calculated using the Cheng-Prussoff equation (Cheng et al, Biochem. Pharmacol. 1973, 22, 3099-3108). […]

[5] = aqueous buffer, thermodynamic from solid, pH 6 (Sodium Phosphate Buffer)
[6] = aqueous buffer, thermodynamic from solid, pH 7.4 (PBS buffer)

| Kb (human CGRP receptor) [nM] | solubility thermodynamic at 24 h [1, 5] [µM] | solubility thermodynamic at 24 h [1, 6] [µM] | clearance ([2]; Cynomolgus monkey iv, 1 mg/kg) [mL/min/kg] | bioavailability ([2]; Cynomolgus monkey sc, 0.5 mg/kg) [%] | bioavailability [3] [%] | Ki [4] [nM] | solubility thermodynamic at 24 h ([1]; pH 6 (Sodium Phosphate Buffer)) [µM] | solubility thermodynamic at 24 h ([1]; pH 7.4 (PBS buffer)) [µM] | SMILES |
| --- | --- | --- | --- | --- | --- | --- | --- | --- | --- |
| 1.26 | 1290 (≈ 876 µg/mL) | 800 (≈ 545 µg/mL) | 8 | 100 | 20 | – | – | – | CN[C@H](C)C(=O)N1CCC2(CC1)CCN(C(=O)[C@@H](Cc1cc(C)c3[nH]ncc3c1)NC(=O)N1CCC(c3cc4ccccc4[nH]c3=O)CC1)C2 [Example 2, N-[(2R)-1-[8-(N-methyl-D-alanyl)-2,8-diazaspiro[4.5]dec-2-yl]-3-(7-methyl-1H-indazol-5-yl)-1-oxopropan-2-yl]-4-(2-oxo-1,2-dihydroquinolin-3-yl)piperidine-1-carboxamide] |
| 0.398 | 3630 (≈ 2400 µg/mL) | 2160 (≈ 1430 µg/mL) | – | – | – | 0.0501 | – | – | Cc1cc(C[C@@H](NC(=O)N2CCC(n3c(=O)[nH]c4ncccc43)CC2)C(=O)N2CCC3(CCN(c4ccncc4)CC3)C2)cc2cn[nH]c12 [Example 7, N-{(2R)-3-(7-methyl-1H-indazol-5-yl)-1-oxo-1-[8-(pyridin-4-yl)-2,8-diazaspiro[4.5]dec-2-yl]propan-2-yl}-4-(2-oxo-2,3-dihydro-1H-imidazo[4,5-b]pyridin-1-yl)piperidine-1-carboxamide] |
| 0.631 | 1430 (≈ 961 µg/mL) | 1550 (≈ 1040 µg/mL) | – | – | – | 0.0794 | – | – | CN[C@H](C)C(=O)N1CCC2(CC1)CCN(C(=O)[C@@H](Cc1cc(C)c3[nH]ncc3c1)NC(=O)N1CCC(n3c(=O)[nH]c4ncccc43)CC1)C2 [Example 3, N-[(2R)-1-[8-(N-methyl-D-alanyl)-2,8-diazaspiro[4.5]dec-2-yl]-3-(7-methyl-1H-indazol-5-yl)-1-oxopropan-2-yl]-4-(2-oxo-2,3-dihydro-1H-imidazo[4,5-b]pyridin-1-yl)piperidine-1-carboxamide] |
| – | – | – | – | – | – | – | 150 (≈ 130 µg/mL) | 431 (≈ 375 µg/mL) | NCCCC[C@H](NC(=O)[C@@H](Cc1cc(Br)c(O)c(Br)c1)NC(=O)N1CCC(N2Cc3ccccc3NC2=O)CC1)C(=O)N1CCN(c2ccncc2)CC1 [olcegepant, reference compound] |

Continued, molecule first:

| SMILES | Kb (human CGRP receptor) [nM] | solubility thermodynamic at 24 h [1, 5] [µM] | solubility thermodynamic at 24 h [1, 6] [µM] | clearance ([2]; Cynomolgus monkey iv, 1 mg/kg) [mL/min/kg] | bioavailability ([2]; Cynomolgus monkey sc, 0.5 mg/kg) [%] | bioavailability [3] [%] | Ki [4] [nM] | solubility thermodynamic at 24 h ([1]; pH 6 (Sodium Phosphate Buffer)) [µM] | solubility thermodynamic at 24 h ([1]; pH 7.4 (PBS buffer)) [µM] |
| --- | --- | --- | --- | --- | --- | --- | --- | --- | --- |
| CN[C@H](C)C(=O)N1CCC2(CC1)CCN(C(=O)[C@@H](Cc1cc(C)c3[nH]ncc3c1)NC(=O)N1CCC(N3Cc4ccccc4NC3=O)CC1)C2 [Example 6, N-[(2R)-1-[8-(N-methyl-D-alanyl)-2,8-diazaspiro[4.5]dec-2-yl]-3-(7-methyl-1H-indazol-5-yl)-1-oxopropan-2-yl]-4-(2-oxo-1,4-dihydroquinazolin-3(2H)-yl)piperidine-1-carboxamide] | 0.631 | 1500 (≈ 1020 µg/mL) | 1570 (≈ 1070 µg/mL) | – | – | – | – | – | – |
| Cc1cc(C[C@@H](NC(=O)N2CCC(N3Cc4ccccc4NC3=O)CC2)C(=O)N2CCC3(CCN(C4CCNCC4)CC3)C2)cc2cn[nH]c12 [Example 4, N-{(2R)-3-(7-methyl-1H-indazol-5-yl)-1-oxo-1-[8-(piperidin-4-yl)-2,8-diazaspiro[4.5]dec-2-yl]propan-2-yl}-4-(2-oxo-1,4-dihydroquinazolin-3(2H)-yl)piperidine-1-carboxamide] | 0.794 | 1350 (≈ 918 µg/mL) | 1150 (≈ 783 µg/mL) | – | – | – | 0.0794 | – | – |
| CN[C@H](C)C(=O)N1CCC2(CC1)CCN(C(=O)[C@@H](Cc1cc(C)c3[nH]ncc3c1)NC(=O)N1CCC3(CC1)OC(=O)Nc1ncccc13)C2 [Example 5, N-[(2R)-1-[8-(N-methyl-D-alanyl)-2,8-diazaspiro[4.5]dec-2-yl]-3-(7-methyl-1H-indazol-5-yl)-1-oxopropan-2-yl]-2′-oxo-1′,2′-dihydro-1H-spiro[piperidine-4,4′-pyrido[2,3-d][1,3]oxazine]-1-carboxamide] | 0.501 | 1580 (≈ 1060 µg/mL) | 1460 (≈ 979 µg/mL) | – | – | – | 0.1 | – | – |
| Cc1cc(C[C@@H](NC(=O)N2CCC(n3c(=O)[nH]c4ncccc43)CC2)C(=O)N2CCC3(CCN(C4CCNCC4)CC3)C2)cc2cn[nH]c12 [Example 1, N-{(2R)-3-(7-methyl-1H-indazol-5-yl)-1-oxo-1-[8-(piperidin-4-yl)-2,8-diazaspiro[4.5]dec-2-yl]propan-2-yl}-4-(2-oxo-2,3-dihydro-1H-imidazo[4,5-b]pyridin-1-yl)piperidine-1-carboxamide] | 0.251 | 1030 (≈ 688 µg/mL) | – | – | – | – | – | – | – |
